Experimental data from patent publication US7378530B2, “Anti-cancer and anti-microbial 5-membered heterocyclic compounds” (Nereus Pharmaceuticals, Inc., priority 2005, dated 2008).

Key:
[1] = test system: Staphylococcus aureus - MSSA; assay: Antimicrobial assay, MIC (NCCLS M7-A5); format: cell-based, Staphylococcus aureus (methicillin sensitive)
Procedure: (§1) Minimum inhibitory concentrations (MICs) were determined according to the National Committee for Clinical Laboratory Standards (NCCLS) susceptibility test guideline M7-A5 (Ferraro, M. 2001 Methods for Dilution Antimicrobial Susceptibility Tests for Bacteria that Grow Aerobically; Approved Standard (NCCLS). National Committee for Clinical Laboratory Standards (NCCLS), Villanova, which is incorporated herein by reference in its entirety). The compound of formula VI was tested in DMSO while the compound of formula VII was tested in aqueous MeOH. The compound of formulae VIII and IX were tested in DMSO.

[2] = test system: Staphylococcus aureus - MRSA; assay: Antimicrobial assay, MIC (NCCLS M7-A5); format: cell-based, Staphylococcus aureus (methicillin resistant)
Procedure: as §1

[3] = test system: PSSP; assay: Antimicrobial assay, MIC (NCCLS M7-A5); format: cell-based, Streptococcus pneumonia (penicillin sensitive); conditions: Streptococcus pneumoniae
Procedure: as §1

[4] = test system: H. inf. 49247; assay: Antimicrobial assay, MIC (NCCLS M7-A5); format: cell-based; conditions: Haemophilus influenzae
Procedure: as §1

[5] = test system: H. inf. 49766; assay: Antimicrobial assay, MIC (NCCLS M7-A5); format: cell-based; conditions: Haemophilus influenzae
Procedure: as §1

[6] = test system: Gram-positive microorganisms tested; assay: Antimicrobial assays, summary for Gram-positive microorganisms; format: cell-based
Procedure: as §1

[7] = test system: Gram-negative microorganism Haemophilus influenzae; assay: Antimicrobial assays, summary for Haemophilus influenzae; format: cell-based
Procedure: as §1

[8] = test system: B16-F10 cells; assay: Growth inhibition of murine melanoma B16-F10 cells (resazurin fluorescence); format: cell-based
Procedure: B16-F10 (ATCC; CRL-6475) a murine melanoma cell line was maintained in complete Dulbecco's Modification of Eagle's Medium (DMEM) (DMEM supplemented with 10% (v/v) Fetal bovine serum, 2 mM glutamine, 10 mM HEPES and Penicillin/Streptomycin at 100 IU/ml and 100 μg/ml respectively). The cells were cultured in an incubator at 37° C. in 5% CO2 and 95% humidified air. […] 20 mM stock solutions of formula VI were prepared in 100% DMSO. 10× concentrated serial dilutions of formula VI were prepared in complete media. Ten μl volumes of the serial dilutions were added to the test wells in triplicate resulting in final concentrations ranging from 20 μM to 6.32 nM. The plates were returned to the incubator for 48 hours. The final concentration of DMSO was 0.25% in all samples. Following 48 hours of drug exposure, 10 μl of 0.2 mg/ml resazurin (obtained from Sigma-Aldrich Chemical Co.) in Mg^2+, Ca^2+ free phosphate buffered saline was added to each well and the plates were returned to the incubator for 3-6 hours. Since living cells metabolize Resazurin, the fluorescence of the reduction product of Resazurin was measured using a Fusion microplate fluorometer (Packard Bioscience) with λex=535 nm and λem=590 nm filters. Resazurin dye in medium without cells was used to determine the background, which was subtracted from the data for all experimental wells. […]

[9] = test system: S. epi. 700578; assay: Antimicrobial assay, MIC (NCCLS M7-A5); format: cell-based, Staphylococcus epidermis (multiple drug resistant); conditions: Staphylococcus
Procedure: as §1

[10] = test system: S. epi. 700582; assay: Antimicrobial assay, MIC (NCCLS M7-A5); format: cell-based, Staphylococcus epidermis (multiple drug resistant); conditions: Staphylococcus
Procedure: as §1

[11] = test system: PRSP; assay: Antimicrobial assay, MIC (NCCLS M7-A5); format: cell-based, Streptococcus pneumonia (penicillin resistant); conditions: Streptococcus pneumoniae
Procedure: as §1

[12] = test system: VSE; assay: Antimicrobial assay, MIC (NCCLS M7-A5); format: cell-based, Enterococcus faecalis (vancomycin sensitive); conditions: Enterococcus faecalis
Procedure: as §1

[13] = test system: VRE; assay: Antimicrobial assay, MIC (NCCLS M7-A5); format: cell-based, Enterococcus faecium (vancomycin resistant); conditions: Enterococcus
Procedure: as §1

[14] = test system: Candida albicans; assay: Antimicrobial assay, MIC (NCCLS M7-A5); format: cell-based
Procedure: as §1

[15] = test system: E. c. 25922; assay: Antimicrobial assay, MIC (NCCLS M7-A5); format: cell-based
Procedure: as §1

[16] = test system: E. c. MCR106; assay: Antimicrobial assay, MIC (NCCLS M7-A5); format: cell-based
Procedure: as §1

[17] = test system: E. c. imp; assay: Antimicrobial assay, MIC (NCCLS M7-A5); format: cell-based
Procedure: as §1

Q: With `CCCCCC/C(C)=C/C(=O)C=C1NC(=O)C(CCCC)O1` (stereo not shown) [Formula VIII] as the compound, how does the MIC ([1]; tested in DMSO) read?
A: 4 µg/mL

Q: And the MIC ([2]; tested in DMSO)?
A: 3 µg/mL

Q: And the MIC ([3]; tested in DMSO)?
A: 10 µg/mL

Q: What about the MIC ([4]; tested in DMSO) of the same compound?
A: 16 µg/mL

Q: What about the MIC ([5]; tested in DMSO) of the same compound?
A: 5 µg/mL

Q: What about the “anti-bacterial activity versus the Gram-positive microorganisms tested (statement in words)” value [6] of the same compound?
A: possess anti-bacterial activity

Q: What about the “activity against the Gram-negative microorganism Haemophilus influenzae (statement in words)” value [7] of the same compound?
A: weakly active

Q: Which MIC ([1]; tested in DMSO) does the source give for `CCCCCCC/C(C)=C/C(=O)CC(=N)OC(CCCC)C(=O)O` (stereo not shown) [Formula IX] here?
A: 24 µg/mL

Q: And the MIC ([2]; tested in DMSO)?
A: > 32 µg/mL

Q: What about the MIC ([3]; tested in DMSO) of the same compound?
A: > 32 µg/mL

Q: What about the MIC ([4]; tested in DMSO) of the same compound?
A: > 32 µg/mL

Q: And the MIC ([5]; tested in DMSO)?
A: > 32 µg/mL

Q: What does the source list for `CCCCCCC/C(C)=C/C(=O)C=C1NC(=O)C(CCCC)O1` (stereo not shown) [Formula VI]?
A: growth of B16-F10 tumor cells (statement in words) [8]: inhibits the growth; EC50 ([8]; Mus musculus, B16-F10, 48 hours drug exposure, mean ± standard deviation of three independent experiments, read-out: EC50 against B16-F10 cells): 6 ± 2.6 µM; MIC ([1]; tested in DMSO): 0.88 µg/mL; MIC ([2]; tested in DMSO): 1.04 µg/mL; MIC ([9]; tested in DMSO): 0.54 µg/mL; MIC ([10]; tested in DMSO): 0.54 µg/mL; MIC ([3]; tested in DMSO): 2.58 µg/mL; MIC ([11]; tested in DMSO): 4.67 µg/mL; MIC ([12]; tested in DMSO): 3.67 µg/mL; MIC ([13]; tested in DMSO): 1.83 µg/mL; MIC ([14]; tested in DMSO): > 32 µg/mL; MIC ([15]; tested in DMSO): > 32 µg/mL; MIC ([16]; tested in DMSO): > 32 µg/mL; MIC ([17]; tested in DMSO): > 32 µg/mL; MIC ([4]; tested in DMSO): 12 µg/mL; MIC ([5]; tested in DMSO): 12 µg/mL; anti-bacterial activity versus the Gram-positive microorganisms tested (statement in words) [6]: possess anti-bacterial activity; activity against the Gram-negative microorganism Haemophilus influenzae (statement in words) [7]: weakly active

Q: For `CCCCCCC/C(C)=C/C(=O)C=C1NC(=O)C(CCCCC)O1` (stereo not shown) [Formula VII], which MIC ([1]; tested in aqueous MeOH) is on record?
A: 6 µg/mL

Q: And the MIC ([2]; tested in aqueous MeOH)?
A: 1.5 µg/mL

Q: What about the MIC ([9]; tested in aqueous MeOH) of the same compound?
A: 1.25 µg/mL

Q: And the MIC ([10]; tested in aqueous MeOH)?
A: 0.75 µg/mL

Q: What about the MIC ([3]; tested in aqueous MeOH) of the same compound?
A: 8 µg/mL

Q: What about the MIC ([11]; tested in aqueous MeOH) of the same compound?
A: 6 µg/mL

Q: And the MIC ([12]; tested in aqueous MeOH)?
A: 3 µg/mL

Q: What about the MIC ([13]; tested in aqueous MeOH) of the same compound?
A: 1.5 µg/mL

Q: And the MIC ([14]; tested in aqueous MeOH)?
A: > 32 µg/mL

Q: What about the MIC ([15]; tested in aqueous MeOH) of the same compound?
A: > 32 µg/mL

Q: What about the MIC ([16]; tested in aqueous MeOH) of the same compound?
A: > 32 µg/mL

Q: And the MIC ([17]; tested in aqueous MeOH)?
A: > 32 µg/mL

Q: What about the MIC ([4]; tested in aqueous MeOH) of the same compound?
A: 12 µg/mL

Q: And the MIC ([5]; tested in aqueous MeOH)?
A: 16 µg/mL

Q: What about the “anti-bacterial activity versus the Gram-positive microorganisms tested (statement in words)” value [6] of the same compound?
A: possess anti-bacterial activity

Q: And the “activity against the Gram-negative microorganism Haemophilus influenzae (statement in words)” value [7]?
A: weakly active
